Blank lines part the entries; values can stand above or below the compound they belong to.
What was measured:
[1] = test system: EA.hy 926; assay: Antiproliferative activity against human EA.hy 926 cells assessed as reduction in cell viability incubated for 48 hrs by MTT assay; format: functional, cell-based; details: EA.hy 926, 48 h
[2] = test system: HUVEC; assay: Anti-angiogenesis activity in HUVEC cells; format: functional, cell-based; details: Homo sapiens
[3] = test system: HUVEC; assay: Antiproliferative activity against HUVEC cells assessed as reduction in cell viability measured after 48 hrs by MTT assay; format: functional, cell-based; details: Homo sapiens
[4] = test system: NCI-H1975; assay: Antiproliferative activity against human NCI-H1975 cells assessed as reduction in cell viability measured after 48 hrs by MTT assay; format: functional, cell-based; details: NCI-H1975, 48 h
[5] = test system: A549; assay: Antiproliferative activity against human A549 cells assessed as reduction in cell viability measured after 48 hrs by MTT assay; format: functional, cell-based; details: A549, 48 h
[6] = test system: MCF7; assay: Cytotoxicity against human MCF7 cells assessed as reduction in cell viability incubated for 24 hrs by MTT assay; format: functional, cell-based; details: MCF7, 24 h
[7] = test system: HepG2; assay: Cytotoxicity against human HepG2 cells assessed as reduction in cell viability incubated for 24 hrs by MTT assay; format: functional, cell-based; details: HepG2, 24 h
[8] = target: T1, Vascular endothelial growth factor receptor 2 (Homo sapiens, UniProt P35968); assay: Inhibition of VEGFR2 in HUVEC cells; format: cell-based
[9] = Inhibition of angiogenesis in HUVEC cells assessed as reduction in capillary tube formation after 6 hrs by phase contrast microscopy; format: functional, cell-based; details: Homo sapiens
[10] = test system: MCF7; assay: Antiproliferative activity against human MCF7 cells assessed as cell growth inhibition; format: functional, cell-based
[11] = test system: MDA-MB-231; assay: Antiproliferative activity against human MDA-MB-231 cells assessed as cell growth inhibition; format: functional, cell-based
[12] = Cytotoxicity against HUVEC cells assessed as reduction in cell viability and measured after 24 hrs by MTT assay; format: toxicity, cell-based; details: human
[13] = target: T1, Vascular endothelial growth factor receptor 2; assay: Inhibition of human VEGFR
[14] = target: Angiopoietin-1 receptor (Homo sapiens, UniProt Q02763); assay: Inhibition of TIE2 (unknown origin)
Chain of Angiopoietin-1 receptor (Q02763 whole entry): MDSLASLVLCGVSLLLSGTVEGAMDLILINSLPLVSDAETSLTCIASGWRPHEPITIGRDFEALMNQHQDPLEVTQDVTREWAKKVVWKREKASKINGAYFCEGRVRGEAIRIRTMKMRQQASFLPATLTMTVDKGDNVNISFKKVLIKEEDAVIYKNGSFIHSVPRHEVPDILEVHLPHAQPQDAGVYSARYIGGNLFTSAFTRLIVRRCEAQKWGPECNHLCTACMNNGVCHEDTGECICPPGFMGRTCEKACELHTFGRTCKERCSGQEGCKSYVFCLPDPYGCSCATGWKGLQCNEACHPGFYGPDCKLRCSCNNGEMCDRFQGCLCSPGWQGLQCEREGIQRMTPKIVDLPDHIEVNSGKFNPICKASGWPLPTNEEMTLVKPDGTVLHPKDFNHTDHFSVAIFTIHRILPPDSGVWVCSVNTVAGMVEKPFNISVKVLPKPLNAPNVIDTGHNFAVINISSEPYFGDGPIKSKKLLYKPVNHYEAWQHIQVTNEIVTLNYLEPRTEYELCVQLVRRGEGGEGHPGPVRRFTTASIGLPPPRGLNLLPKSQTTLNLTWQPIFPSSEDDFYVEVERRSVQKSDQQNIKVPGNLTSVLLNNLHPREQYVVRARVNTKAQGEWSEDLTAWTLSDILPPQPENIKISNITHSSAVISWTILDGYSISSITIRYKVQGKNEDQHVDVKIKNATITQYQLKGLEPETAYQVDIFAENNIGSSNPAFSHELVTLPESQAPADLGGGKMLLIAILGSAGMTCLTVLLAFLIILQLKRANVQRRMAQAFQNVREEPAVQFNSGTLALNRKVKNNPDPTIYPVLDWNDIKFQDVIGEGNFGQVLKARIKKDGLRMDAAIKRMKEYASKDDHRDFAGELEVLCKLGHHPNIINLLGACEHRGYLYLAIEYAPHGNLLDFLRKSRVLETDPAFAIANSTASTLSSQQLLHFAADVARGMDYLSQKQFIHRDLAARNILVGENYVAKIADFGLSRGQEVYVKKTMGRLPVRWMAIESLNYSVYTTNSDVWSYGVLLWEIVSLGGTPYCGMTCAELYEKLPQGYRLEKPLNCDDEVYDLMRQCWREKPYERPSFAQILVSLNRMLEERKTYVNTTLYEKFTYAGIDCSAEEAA

T1 sequence (P35968 whole entry): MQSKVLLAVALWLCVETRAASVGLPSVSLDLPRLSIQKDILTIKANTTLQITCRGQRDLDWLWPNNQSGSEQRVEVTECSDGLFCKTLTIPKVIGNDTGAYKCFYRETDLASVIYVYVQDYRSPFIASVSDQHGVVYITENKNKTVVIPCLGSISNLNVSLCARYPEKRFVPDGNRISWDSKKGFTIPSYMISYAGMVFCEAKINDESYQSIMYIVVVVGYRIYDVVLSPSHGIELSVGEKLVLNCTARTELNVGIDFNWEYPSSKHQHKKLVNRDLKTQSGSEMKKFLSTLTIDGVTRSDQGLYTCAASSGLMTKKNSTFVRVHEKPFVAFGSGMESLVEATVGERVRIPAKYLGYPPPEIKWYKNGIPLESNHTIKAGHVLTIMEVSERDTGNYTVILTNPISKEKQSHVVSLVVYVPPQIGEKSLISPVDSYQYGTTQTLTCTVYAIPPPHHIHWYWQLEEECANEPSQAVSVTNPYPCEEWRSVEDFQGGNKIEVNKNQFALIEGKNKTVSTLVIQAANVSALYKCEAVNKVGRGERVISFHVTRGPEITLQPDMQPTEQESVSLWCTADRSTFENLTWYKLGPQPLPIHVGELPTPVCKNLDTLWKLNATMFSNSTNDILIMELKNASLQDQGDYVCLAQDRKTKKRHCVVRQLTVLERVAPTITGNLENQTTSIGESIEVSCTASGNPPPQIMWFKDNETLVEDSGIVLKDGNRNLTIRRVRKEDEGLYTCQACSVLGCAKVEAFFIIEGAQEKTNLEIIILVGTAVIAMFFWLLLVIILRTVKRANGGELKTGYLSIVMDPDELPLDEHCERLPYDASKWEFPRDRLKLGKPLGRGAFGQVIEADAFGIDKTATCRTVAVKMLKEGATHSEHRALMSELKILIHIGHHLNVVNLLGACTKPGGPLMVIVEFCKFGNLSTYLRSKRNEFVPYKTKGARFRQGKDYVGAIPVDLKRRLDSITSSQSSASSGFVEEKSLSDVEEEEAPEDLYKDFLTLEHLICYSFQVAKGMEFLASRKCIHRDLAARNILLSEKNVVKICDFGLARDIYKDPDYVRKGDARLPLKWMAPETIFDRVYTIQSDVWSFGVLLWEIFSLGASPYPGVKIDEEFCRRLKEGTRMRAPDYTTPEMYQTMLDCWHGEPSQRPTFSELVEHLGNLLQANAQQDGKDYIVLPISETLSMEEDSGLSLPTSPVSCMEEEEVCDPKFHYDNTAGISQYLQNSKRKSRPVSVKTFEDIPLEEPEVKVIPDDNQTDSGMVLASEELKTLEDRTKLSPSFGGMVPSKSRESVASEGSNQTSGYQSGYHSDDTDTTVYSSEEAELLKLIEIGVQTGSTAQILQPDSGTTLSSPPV

Compound: O=C(Nc1ccc(-c2cccc(NC(=O)C3CC3)n2)cc1)Nc1ccc(Cl)c(C(F)(F)F)c1
IC50 [1]: 14.5 µM

Compound: CNC(=O)c1cc(Oc2ccc(NC(=O)Nc3ccc(Cl)c(C(F)(F)F)c3)cc2)ccn1 [SORAFENIB]
IC50 [2]: 73.2 µM

IC50 [4]: 1.4 µM
IC50 [5]: 7.61 µM
Compound: O=C(Nc1ccc(OC(F)(F)F)cc1)Nc1ccc2nc(-c3ccccc3Cl)oc2c1
IC50 [3]: 8.46 µM

Compound: CSc1cccc(NC(=O)Nc2ccc(Oc3ccc4[nH]c(=O)c(=O)[nH]c4c3)cc2C)c1
IC50 [6]: 14 µM
IC50 [7]: 17 µM

IC50 [8]: 73.2 µM
IC50 [9]: 5.3 µM
Compound: Cc1nc(Nc2ccc(NC(=O)Nc3cccc(F)c3)cc2)c2nc(-c3ccccc3)sc2n1
IC50 [2]: 5.3 µM

Compound: O=C(Nc1ccc(-c2cccc(NC(=O)C3CC3)n2)cc1)Nc1cccc(C(F)(F)F)c1
IC50 [1]: 16.1 µM

IC50 [10]: 1.2 µM
IC50 [11]: 5 µM
Compound: O=C(Nc1cccc(Sc2ccnc3ccsc23)c1)Nc1cccc(C(F)(F)F)c1

Compound: Cc1nc(Nc2ccc(NC(=O)Nc3ccc(F)c(Cl)c3)cc2)c2nc(-c3ccc(OCCCN4CCN(C)CC4)cc3)oc2n1
IC50 at 24 h [12]: 12.4 µM

IC50 [13]: 3.5 µM
IC50 [14]: 0.0069 µM
Compound: COC(=O)Nc1nc2cc(Oc3ccc(NC(=O)Nc4cc(F)ccc4C(F)(F)F)cc3)ccc2[nH]1

Source: ChEMBL document CHEMBL5356932, “Research and development of N,N'-diarylureas as anti-tumor agents” (RSC Med Chem, 2023)
